# Literature values as cited in paper PMC11376147 (Chemical Science, 2024).
# pIC50: −log10 of the molar value.
# Target: T1, DC-SIGN ECD (Homo sapiens, UniProt Q9NNX6)
# T1 sequence (Q9NNX6 66-404): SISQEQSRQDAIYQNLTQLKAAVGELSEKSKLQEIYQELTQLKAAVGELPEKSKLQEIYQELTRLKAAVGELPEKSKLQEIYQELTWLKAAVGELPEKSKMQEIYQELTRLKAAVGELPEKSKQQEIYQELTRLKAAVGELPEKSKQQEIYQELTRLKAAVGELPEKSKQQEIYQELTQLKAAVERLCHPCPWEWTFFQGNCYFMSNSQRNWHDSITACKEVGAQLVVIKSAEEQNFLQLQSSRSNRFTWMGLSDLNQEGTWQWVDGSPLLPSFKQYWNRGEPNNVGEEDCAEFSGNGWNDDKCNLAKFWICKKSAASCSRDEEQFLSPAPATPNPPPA
# Details: read-out: IC50 DC-SIGN; SPR inhibition, Spike surface; cited from earlier work
smiles,measurement,value
OC[C@H]1OC(O)[C@@H](O)[C@@H](O)[C@@H]1O (stereo partly shown) [mannose],pIC50,2.52
